Test results from ChEMBL document CHEMBL1201862, “PubChem BioAssay data set” (2004).
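Tested at 5 concentrations; 48 h exposure; 96-well plates; endpoints linearly interpolated, else capped at highest concentration. GI50 = concentration required for 50% inhibition of growth.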 Activity calls are given as the source filed them. Cut-off read from the data, not from the text of the source: active = GI50 up to about 1.1 µM and inactive = higher.

How the values were obtained:
Assay in all cases: NCI anticancer screen, dose series, 48 h
786-0 = test system: 786-0
A498 = test system: A498
A549 = test system: A549
ACHN = test system: ACHN
BT-549 = test system: BT-549
CAKI-1 = test system: CAKI-1
CCRF-CEM = test system: CCRF-CEM
COLO 205 = test system: COLO 205
DU-145 = test system: DU-145
EKVX = test system: EKVX
HCC 2998 = test system: HCC 2998
HCT-116 = test system: HCT-116
HCT-15 = test system: HCT-15
HL-60 = test system: HL-60
HOP-62 = test system: HOP-62
HOP-92 = test system: HOP-92
HT-29 = test system: HT-29
Hs-578T = test system: Hs-578T
IGROV-1 = test system: IGROV-1
K562 = test system: K562
KM12 = test system: KM12
LOX IMVI = test system: LOX IMVI
M14 = test system: M14
MCF7 = test system: MCF7
MDA-MB-231 = test system: MDA-MB-231
MDA-MB-435 = test system: MDA-MB-435
MDA-N = test system: MDA-N
MOLT-4 = test system: MOLT-4
Malme-3M = test system: Malme-3M
NCI-H226 = test system: NCI-H226
NCI-H23 = test system: NCI-H23
NCI-H460 = test system: NCI-H460
NCI-H522 = test system: NCI-H522
NCI/ADR-RES = test system: NCI/ADR-RES
OVCAR-3 = test system: OVCAR-3
OVCAR-4 = test system: OVCAR-4
OVCAR-8 = test system: OVCAR-8
PC-3 = test system: PC-3
RPMI-8226 = test system: RPMI-8226
RXF 393 = test system: RXF 393
SF-268 = test system: SF-268
SF-295 = test system: SF-295
SF-539 = test system: SF-539
SK-MEL-28 = test system: SK-MEL-28
SK-MEL-2 = test system: SK-MEL-2
SK-MEL-5 = test system: SK-MEL-5
SK-OV-3 = test system: SK-OV-3
SN12C = test system: SN12C
SNB-19 = test system: SNB-19
SNB-75 = test system: SNB-75
SR = test system: SR
SW-620 = test system: SW-620
T47D = test system: T47D
TK-10 = test system: TK-10
U-251 = test system: U-251
UACC-257 = test system: UACC-257
UACC-62 = test system: UACC-62
UO-31 = test system: UO-31
OVCAR-5 = test system: OVCAR-5

COc1cc2c(cc1OC)C/C(=N\O)c1cc(OC)c(OC)cc1/C=C\2
GI50 (786-0): 5.52 µM (inactive) | GI50 (A498): 21.2 µM (inactive) | GI50 (A549): 8.38 µM (inactive) | GI50 (ACHN): 12.9 µM (inactive) | GI50 (BT-549): 28.7 µM (inactive) | GI50 (CAKI-1): 3.61 µM (inactive) | GI50 (CCRF-CEM): 13.1 µM (inactive) | GI50 (COLO 205): 4.91 µM (inactive) | GI50 (DU-145): 4.49 µM (inactive) | GI50 (EKVX): 10.7 µM (inactive) | GI50 (HCC 2998): 2.95 µM (inactive) | GI50 (HCT-116): 3.82 µM (inactive) | GI50 (HCT-15): 5.31 µM | GI50 (HL-60): 3.03 µM (inactive) | GI50 (HOP-62): 2.82 µM (inactive) | GI50 (HOP-92): 43.8 µM (inactive) | GI50 (HT-29): 3.67 µM (inactive) | GI50 (Hs-578T): 2.12 µM (inactive) | GI50 (IGROV-1): 3.37 µM (inactive) | GI50 (K562): 4.86 µM (inactive) | GI50 (KM12): 5.2 µM (inactive) | GI50 (LOX IMVI): 6.4 µM (inactive) | GI50 (M14): 3.47 µM (inactive) | GI50 (MCF7): 5.27 µM (inactive) | GI50 (MDA-MB-231): 5.87 µM (inactive) | GI50 (MDA-MB-435): 0.822 µM (active) | GI50 (MDA-N): 1.42 µM (inactive) | GI50 (MOLT-4): 6.41 µM (inactive) | GI50 (Malme-3M): 1.48 µM (inactive) | GI50 (NCI-H226): 5.56 µM (inactive) | GI50 (NCI-H23): 14.2 µM (inactive) | GI50 (NCI-H460): 3.15 µM (inactive) | GI50 (NCI-H522): 1.01 µM (active) | GI50 (NCI/ADR-RES): 5.55 µM (inactive) | GI50 (OVCAR-3): 3.67 µM (inactive) | GI50 (OVCAR-4): 55.5 µM (inactive) | GI50 (OVCAR-8): 10.4 µM (inactive) | GI50 (PC-3): 10.2 µM (inactive) | GI50 (RPMI-8226): 3.82 µM (inactive) | GI50 (RXF 393): 5.25 µM (inactive) | GI50 (SF-268): 6.24 µM (inactive) | GI50 (SF-295): 3.74 µM (inactive) | GI50 (SF-539): 4.22 µM (inactive) | GI50 (SK-MEL-28): 4.6 µM (inactive) | GI50 (SK-MEL-2): 3.44 µM (inactive) | GI50 (SK-MEL-5): 1.95 µM (inactive) | GI50 (SK-OV-3): 13.1 µM (inactive) | GI50 (SN12C): 10.4 µM (inactive) | GI50 (SNB-19): 7.08 µM (inactive) | GI50 (SNB-75): 5.31 µM (inactive) | GI50 (SR): 1.66 µM (inactive) | GI50 (SW-620): 3.48 µM (inactive) | GI50 (T47D): 10.6 µM (inactive) | GI50 (TK-10): 18.8 µM (inactive) | GI50 (U-251): 4.66 µM (inactive) | GI50 (UACC-257): 10.4 µM (inactive) | GI50 (UACC-62): 6.81 µM (inactive) | GI50 (UO-31): 15.9 µM (inactive)

CC(=O)NC1=C(C)C(=O)c2c(nc3n2CC[C@H]3OC(C)=O)C1=O
GI50 (786-0): 1.95 µM (inactive) | GI50 (A498): 16.8 µM (inactive) | GI50 (A549): 8.32 µM (inactive) | GI50 (ACHN): 2.78 µM (inactive) | GI50 (BT-549): 1.59 µM (inactive) | GI50 (CAKI-1): 3.98 µM (inactive) | GI50 (CCRF-CEM): 0.33 µM (active) | GI50 (COLO 205): 1.91 µM (inactive) | GI50 (DU-145): 15.9 µM (inactive) | GI50 (EKVX): 5.25 µM (inactive) | GI50 (HCC 2998): 2.52 µM (inactive) | GI50 (HCT-116): 1.3 µM (inactive) | GI50 (HCT-15): 3.58 µM | GI50 (HL-60): 0.834 µM (active) | GI50 (HOP-62): 10.8 µM (inactive) | GI50 (HOP-92): 0.416 µM (active) | GI50 (HT-29): 2.47 µM (inactive) | GI50 (Hs-578T): 3.21 µM (inactive) | GI50 (IGROV-1): 3.07 µM (inactive) | GI50 (K562): 1.12 µM (active) | GI50 (KM12): 1.71 µM (inactive) | GI50 (LOX IMVI): 0.718 µM (active) | GI50 (M14): 2.06 µM (inactive) | GI50 (MCF7): 1.49 µM (inactive) | GI50 (MDA-MB-231): 1.37 µM (inactive) | GI50 (MDA-MB-435): 0.774 µM (active) | GI50 (MDA-N): 0.628 µM (active) | GI50 (MOLT-4): 0.243 µM (active) | GI50 (Malme-3M): 1.51 µM (inactive) | GI50 (NCI-H226): 9.77 µM (inactive) | GI50 (NCI-H23): 2.61 µM (inactive) | GI50 (NCI-H460): 2.95 µM (inactive) | GI50 (NCI-H522): 1.54 µM (inactive) | GI50 (NCI/ADR-RES): 2.06 µM (inactive) | GI50 (OVCAR-3): 0.0982 µM (active) | GI50 (OVCAR-4): 0.891 µM (active) | GI50 (OVCAR-5): 2.96 µM (inactive) | GI50 (OVCAR-8): 1.55 µM (inactive) | GI50 (PC-3): 0.637 µM (active) | GI50 (RPMI-8226): 1.36 µM (inactive) | GI50 (RXF 393): 1.73 µM (inactive) | GI50 (SF-268): 2.87 µM (inactive) | GI50 (SF-295): 2.1 µM (inactive) | GI50 (SF-539): 2.38 µM (inactive) | GI50 (SK-MEL-28): 2.22 µM (inactive) | GI50 (SK-MEL-2): 1.41 µM (inactive) | GI50 (SK-MEL-5): 3.09 µM (inactive) | GI50 (SN12C): 1.49 µM (inactive) | GI50 (SNB-19): 5.5 µM (inactive) | GI50 (SNB-75): 3.13 µM (inactive) | GI50 (SR): 0.361 µM (active) | GI50 (SW-620): 1.53 µM (inactive) | GI50 (T47D): 0.238 µM (active) | GI50 (TK-10): 8.13 µM (inactive) | GI50 (U-251): 1.59 µM (inactive) | GI50 (UACC-257): 1.01 µM (active) | GI50 (UACC-62): 1.69 µM (inactive) | GI50 (UO-31): 3.01 µM (inactive)

COc1ccc(CSC2=C(C#N)C(=O)NC3(CCCCC3)S2)cc1
GI50 (786-0): 64.1 µM (inactive) | GI50 (A498): > 63.5 µM (inactive) | GI50 (A549): > 83.8 µM (inactive) | GI50 (ACHN): > 93.5 µM (inactive) | GI50 (BT-549): 48.2 µM (inactive) | GI50 (CAKI-1): 77.6 µM (inactive) | GI50 (CCRF-CEM): 2.66 µM (inactive) | GI50 (COLO 205): > 61.8 µM (inactive) | GI50 (DU-145): > 85.7 µM (inactive) | GI50 (EKVX): 54 µM (inactive) | GI50 (HCC 2998): 28.2 µM (inactive) | GI50 (HCT-116): 44.5 µM (inactive) | GI50 (HCT-15): 57.8 µM | GI50 (HL-60): 3.63 µM (inactive) | GI50 (HOP-62): 61.8 µM (inactive) | GI50 (HOP-92): > 55.7 µM (inactive) | GI50 (HT-29): 38.1 µM (inactive) | GI50 (Hs-578T): 41.9 µM (inactive) | GI50 (IGROV-1): > 69.7 µM (inactive) | GI50 (K562): > 50 µM (inactive) | GI50 (LOX IMVI): 30.1 µM (inactive) | GI50 (M14): 42.2 µM (inactive) | GI50 (MCF7): 34.2 µM (inactive) | GI50 (MDA-MB-231): > 76.4 µM (inactive) | GI50 (MDA-MB-435): 19 µM (inactive) | GI50 (MDA-N): 22.4 µM (inactive) | GI50 (MOLT-4): 36.9 µM (inactive) | GI50 (Malme-3M): 54.5 µM (inactive) | GI50 (NCI-H226): > 100 µM (inactive) | GI50 (NCI-H23): 48.8 µM (inactive) | GI50 (NCI-H460): 69 µM (inactive) | GI50 (NCI-H522): 24.2 µM (inactive) | GI50 (NCI/ADR-RES): 49.7 µM (inactive) | GI50 (OVCAR-3): 35.2 µM (inactive) | GI50 (OVCAR-4): 36.6 µM (inactive) | GI50 (OVCAR-5): > 100 µM (inactive) | GI50 (OVCAR-8): > 59.3 µM (inactive) | GI50 (PC-3): 74.8 µM (inactive) | GI50 (RPMI-8226): > 56.6 µM (inactive) | GI50 (RXF 393): 30.5 µM (inactive) | GI50 (SF-268): 47.1 µM (inactive) | GI50 (SF-295): 51.6 µM (inactive) | GI50 (SF-539): > 56.6 µM (inactive) | GI50 (SK-MEL-28): > 73.6 µM (inactive) | GI50 (SK-MEL-2): 38.6 µM (inactive) | GI50 (SK-MEL-5): 42.5 µM (inactive) | GI50 (SK-OV-3): 44.7 µM (inactive) | GI50 (SN12C): 65.2 µM (inactive) | GI50 (SNB-19): 54.5 µM (inactive) | GI50 (SNB-75): 62.2 µM (inactive) | GI50 (SR): 71.3 µM (inactive) | GI50 (SW-620): 32.6 µM (inactive) | GI50 (T47D): 27.5 µM (inactive) | GI50 (TK-10): > 95.5 µM (inactive) | GI50 (U-251): 48.4 µM (inactive) | GI50 (UACC-257): > 81.7 µM (inactive) | GI50 (UACC-62): 61.4 µM (inactive) | GI50 (UO-31): 96.4 µM (inactive)
